Values after ≈ are worked out from the molar mass of the structure shown. Like-named read-outs stand apart in the source and are kept apart here.
Legend:
Water solubility = assay type: physicochemical
Experimental: Water solubility of adenine derivatives of the present invention and representative known cytokinin substances was measured and the results are shown in Table 7. […]

[1] = tested on: Rice seeds (var.: Nankin No. 11) leaf section; test: Assay of cytokinin activity by measurement of chlorophyll content (senescence retardation of rice leaf sections); assay type: cell-based, Rice (var.: Nankin No. 11); conditions: dark, 30°C, 3 days
Experimental: Rice seeds (var.: Nankin No. 11) were sown in soil mixed with fertilizer in a seed box and raised for about one month in a greenhouse (25°C in the daytime and 15°C in the night).
A leaf section 1 cm long was cut off from the center of the fourth leaf of the seedlings at the sixth leaf stage. Five leaf sections as one group which had been cut off were floated on the surface of an aqueous solution (2 ml) of the candidate compound or benzyl adenine at a given concentration contained in a glass tubular bottle of 32 mm in inner diameter. This was left to stand in the dark at 30°C for 3 days. The leaf sections were taken out and put in a test tube containing 10 ml of 80% ethanol and the glass tube was immersed in a water bath of 80°C for 20 minutes to extract chlorophyll. After cooling, 80% ethanol was added to make up to 10 ml and absorbance at 665 nm was measured. For the untreated group, water was used in place of the candidate solution in all examples.
Senescence retardation was determined according to the degree of chlorophyll retention, that is, calculated using the following formula (in all examples). [formula] • (A) : Absorbance of treated group after 3 days • (B) : Absorbance of untreated group after 3 days • (C) : Absorbance of leaves before treatment.

[2] = tested on: pig weed (Amaranthus caudatus); test: Assay of cytokinin activity to promote synthesis of betacyanin by pig weed cotyledon sections; assay type: cell-based; conditions: 27°C, 20 hours, dark
Experimental: Two sheets of filter paper were put double in a plastic container (19 x 28 cm) and were wetted with 60 ml of distilled water. Seeds of pig weed were sown on the filter papers and were germinated by keeping them in the dark at 27°C for 3 days. Seedlings of uniform size were chosen and were cut at the upper part of the hypocotyl and the seed coats were removed. This cotyledon with hypocotyl of 3-4 mm in length was used for assay.
Two sheets of filter paper were put double in a glass tubular bottle 32 mm in inner diameter and 1 ml of 0.0065M potassium phosphate buffer solution (pH: 6.3) containing a given concentration of the candidate compound, benzyladenine or zeatin and 0.5 g/l of tyrosine was added therein and ten of the above cotyledon sections were arranged therein and kept at 27°C for 20 hours in the dark. These ten cotyledon sections were put in a test tube containing 3 ml of distilled water and betacyanin was extracted by repeating thrice freezing and thawing. Absorbance of the solution was measured and the amount of the dye was calculated by the difference between the absorbance at 542 nm and at 620 nm. For the untreated group, 0.0065M potassium phosphate buffer solution (pH: 6.3) containing 0.5 g/l of tyrosine was used.

[3] = tested on: glycine (soybean) hypocotyl section; test: Assay for cytokinin activity according to glycine (soybean) hypocotyl section growth test (callus weight); assay type: cell-based, Soybean (var.: Enrei); conditions: Miller's medium with 2,4-D, dark, 30°C, about one month
Experimental: Soybean seeds (var.: Enrei) were disinfected with antiformin containing 0.7% effective chlorine for 4 minutes and washed thrice with sterilized water.
Agar (15 ml, 1.6%) was put in a test tube 2.5 cm in diameter. A groove was cut by forceps on the surface of the agar and two soybean seeds treated as above were placed in this groove and kept in the dark at 30°C for 5 days.
In a glass tubular bottle 26 mm in inner diameter was put Miller's medium, to which a given concentration of the candidate compound, benzyladenine or zeatin and […] of 2,4-D were added. The central portion of hypocotyl budding out from the above seeds was cut off to give a section 1 mm thick. Four of the sections as one group were transplanted to the Miller's medium. This was placed in the dark at 30°C for about one month and then the weight of callus formed was measured. For untreated group, the Miller's medium containing 9 mg/l of 2,4-D was used.

[4] = 20°C, read-out: Solubility (g/100 g H₂O) (20°C)

Row | SMILES | solubility (Water solubility) [mg/mL] | The senescence retardation (%) ([1]; 0.01 mg/l) | The senescence retardation (%) ([1]; 0.1 mg/l) | The senescence retardation (%) ([1]; 1.0 mg/l) | The senescence retardation (%) ([1]; 10 mg/l) | The senescence retardation (%) ([1]; 100 mg/l) | solubility (Water solubility; [4]) [mg/mL] | The amount of betacyanin produced (difference between absorbance at 542 nm and 620 nm) ([2]; 0.1 mg/l) | The amount of betacyanin produced (difference between absorbance at 542 nm and 620 nm) ([2]; 1.0 mg/l) | The amount of betacyanin produced (difference between absorbance at 542 nm and 620 nm) ([2]; 10 mg/l) | The amount of betacyanin produced (difference between absorbance at 542 nm and 620 nm) ([2]; 100 mg/l) | The weight of soybean callus formed ([3]; 0.01 mg/l) [mg] | The weight of soybean callus formed ([3]; 0.1 mg/l) [mg] | The weight of soybean callus formed ([3]; 1.0 mg/l) [mg] | The weight of soybean callus formed ([3]; 10 mg/l) [mg] | The amount of betacyanin produced (difference between absorbance at 542 nm and 620 nm) ([2]; 0.001 mg/l) | The amount of betacyanin produced (difference between absorbance at 542 nm and 620 nm) ([2]; 0.01 mg/l) | The weight of soybean callus formed ([3]; 0.001 mg/l) [mg]
1 | c1coc(CNc2ncnc3[nH]cnc23)c1 [Kinetin, reference compound] | 0.02 (≈ 0.0929 mM) |  |  |  |  |  |  |  |  |  |  |  |  |  |  |  |  | 
2 | CON(C)CCCCNc1ncnc2nc[nH]c12 [MABD, N⁶-[4-(N-methoxy-N-methylamino)butyl]adenine] |  | 1 | 11 | 21 | 77 | 87 | 53 (≈ 212 mM) | 0.044 | 0.069 | 0.127 | 0.207 | 51 | 152 | 178 | 824 |  |  | 
3 | CON(C)CCCNc1ncnc2nc[nH]c12 [MAPD, N⁶-[3-(N-methoxy-N-methylamino)propyl]adenine] |  | 18 | 50 | 94 | 99 | 91 | 136 (≈ 576 mM) | 0.065 | 0.132 | 0.227 | 0.236 | 131 | 143 | 841 | 677 |  |  | 
4 | C/C(=C\CNc1ncnc2[nH]cnc12)CO [t-Zeatin, reference compound] |  |  |  |  |  |  | 1.4 (≈ 6.39 mM) | 0.198 | 0.242 |  |  | 382 | 815 | 662 |  | 0.040 | 0.062 | 52
